Data published in patent US20260078099A1, “COMPOUND, PREPARATION METHOD THEREOF, AND LIPID NANOPARTICLE AND PHARMACEUTICAL COMPOSITION” (priority 2023, published 2026).

What was measured:
[1] = LNP size and PDI by dynamic light scattering; format: physicochemical; conditions: mRNA LNP, cationic lipid/DSPC/cholesterol/PEG-lipid 50:10:38.5:1.5
Protocol: (§1) In summary, the cationic lipid described herein, DSPC, cholesterol, and PEG-lipid were dissolved in ethanol at a molar ratio of 50:10:38.5:1.5 and diluted in 10 mM to 50 mM citrate buffer at pH 4 with mRNA. Using a microfluidic device, the lipid ethanol solution was mixed with mRNA aqueous solution at a volume ratio of 1:3 and a total flow rate ranging from 6-30 mL/min, preparing LNPs with a total lipid to mRNA weight ratio of approximately 10:1 to 30:1. Ethanol was removed by dialysis and replaced with PBS. Finally, the lipid nanoparticles were filtered through a 0.22 μm sterile filter.
(§2) The size of lipid nanoparticles was measured by dynamic light scattering using a Malvern Zetasizer Nano ZS (Malvern, UK) with a 90° scattering detection mode. The encapsulation efficiency of lipid nanoparticles was determined using the Quant-it Ribogreen RNA Quantitation Kit (Thermo Fisher Scientific, UK) according to the manufacturer's instructions. The apparent pKa of LNP formulations correlates with the delivery efficiency of nucleic acids by LNPs in vivo. The apparent pKa ranges from approximately 5 to 7. An analysis based on fluorescence from 2-(p-tolylamino)-6-naphthalenesulfonic acid (TNS) was used to determine the apparent pKa of formulations. As described above, LNP formulations containing cationic lipid/DSPC/cholesterol/DMG-PEG (50/10/38.5/1.5 mol %) in PBS were prepared. A 300 μM stock solution of TNS in distilled water was prepared. LNP formulations were diluted to 0.1 mg/mL total lipid in 3 mL of buffer solution containing 50 mM sodium citrate, 50 mM sodium phosphate, 50 mM sodium borate, and 30 mM sodium chloride (pH ranged from 3 to 9). […] S-shaped curve best-fit analysis was applied to the fluorescence data, and the pKa value was measured as the pH value producing half-maximal fluorescence intensity.

[2] = LNP encapsulation efficiency (Quant-it Ribogreen); format: physicochemical; conditions: mRNA LNP, cationic lipid/DSPC/cholesterol/PEG-lipid 50:10:38.5:1.5
Text: Encapsulation Efficiency: The encapsulation efficiency of a therapeutic and/or prophylactic agent refers to the amount of the therapeutic and/or prophylactic agent encapsulated within or otherwise associated with the nanoparticle composition relative to the initial amount provided during preparation. Encapsulation efficiency is desirably high (such as close to 100%). Encapsulation efficiency can be measured, for example, by comparing the amount of therapeutic and/or prophylactic agent in a solution containing the nanoparticle composition before and after disruption of the nanoparticle composition using one or more organic solvents or detergents. Fluorescence can be used to measure the amount of free therapeutic and/or prophylactic agent (e.g., RNA) in solution. For the nanoparticle compositions described herein, the encapsulation efficiency of the therapeutic and/or prophylactic agent may be at least 50%, such as 50%, 55%, 60%, 65%, 70%, 75%, 80%, 85%, 90%, 91%, 92%, 93%, 94%, 95%, 96%, 97%, 98%, 99%, or 100%. In some embodiments, the encapsulation efficiency may be at least 80%. In certain embodiments, the encapsulation efficiency may be at least 90%.
as §1, §2

LNP zeta potential = format: physicochemical; conditions: mRNA LNP
Text: Nanoparticle compositions can be characterized by various methods. For example, the morphology and size distribution of nanoparticle compositions can be examined using microscopy (e.g., transmission electron microscopy or scanning electron microscopy). The zeta potential can be measured using dynamic light scattering or potentiometric titration. Dynamic light scattering can also be used to determine particle size. Instruments such as the Zetasizer Nano ZS (Malvern Instruments Ltd., Malvern, Worcestershire, UK) can also be used to measure multiple characteristics of nanoparticle compositions, such as particle size, polydispersity index, and zeta potential.
[…]: The zeta potential of the nanoparticle composition can indicate the electrophoretic potential of the composition. For example, zeta potential may describe the surface charge of the nanoparticle composition. Nanoparticle compositions with relatively low positive or negative charges are generally desirable, as materials with higher charges may interact undesirably with cells, tissues, and other components in the body. In some embodiments, the zeta potential of the nanoparticle composition may be about −10 mV to about +20 mV, about −10 mV to about +15 mV, about −10 mV to about +10 mV, about −10 mV to about +5 mV, about −10 mV to about 0 mV, about −10 mV to about −5 mV, about −5 mV to about +20 mV, about −5 mV to about +15 mV, about −5 mV to about +10 mV, about −5 mV to about +5 mV, about −5 mV to about 0 mV, about 0 mV to about +20 mV, about 0 mV to about +15 mV, about 0 mV to about +10 mV, about 0 mV to about +5 mV, about +5 mV to about +20 mV, about +5 mV to about +15 mV, or about +5 mV to about +10 mV.

mice = experiment: Bioluminescent study, intramuscular injection of F-luc mRNA LNPs; format: in vivo; conditions: F-luc luminescence flux normalized to MC3; 0.25 mg/kg intramuscular, mice n=3, 6-hour time point
Protocol: The efficacy of nanoparticle compositions was evaluated using bioluminescent studies. A dose of 0.25 mg/kg (mpk) of the formulation was administered to mice (n=3) via intramuscular injection, and bioluminescence was measured at a 6-hour time point. The test lipid nanoparticles from the MC3 formulation were evaluated, and in some cases, controls (e.g., PBS controls) were assessed for comparison.
The characteristics of the test lipid nanoparticles measured from the test groups, including F-luc luminescence intensity, are listed in the table below.

| SMILES | PDI [1] | Size (nm) [1] | Encapsulation efficiency (%) [2] | Zeta potential (mV) (LNP zeta potential) | Relative Total flux (mice) |
| --- | --- | --- | --- | --- | --- |
| CCCCCCCCC(CCCCCC)C(=O)OCCCCCCN(CCCCO)CCCCCCOC(=O)C(CCCCCC)CCCCCCCC (centres unmarked) [ALC-0315] | 0.082 | 70.12 nm | 93.27% | −0.76 mV | A (A: ≥2) |
| CCCCCCCCC(CCCCCC)COC(=O)CCCCCCCCCNC(=O)C(CCCCCCCC)N(CCCN(C)C)C(=O)CCCCCCCCCC(=O)OCC(CCCCCC)CCCCCCCC (centres unmarked) [Compound A14] | 0.228 | 89.33 nm | 94.31% | 4.02 mV | C (C: ≥0.1 and <1) |
| CCCCCCCCC(CCCCCC)COC(=O)CCCCCNC(=O)C(CCCCC)N(CCCN1CCCC1)C(=O)CCCCCC(=O)OCC(CCCCCC)CCCCCCCC (centres unmarked) [Compound A45] | 0.06 | 79.00 nm | 94.62% | 0.83 mV | A (A: ≥2) |
| CCCCCCCCC(C(=O)NCCCCCCCCCC(=O)OCCCCCC)N(CCCN1CCCC1)C(=O)CCCCCCCCCC(=O)OCCCCCC (centres unmarked) [Compound A6] | 0.234 | 55.75 nm | 84.80% | −9.54 mV | A (A: ≥2) |
| CCCCCCCC(C(=O)NCCCCCCCCCC(=O)OC(CCCCCC)CCCCCC)N(CCCN(C)C)C(=O)CCCCCCCCCC(=O)OCC1CC=CCC1 (centres unmarked) [Compound A19] | 0.093 | 78.64 nm | 89.13% | −0.20 mV | D (D: <0.1.) |
| CCCCCCCCNC(=O)C(CCCCCCC)N(CCCN(C)C)C(=O)CCCCCCC(=O)OC(CCCCCCCC)CCCCCCCC (centres unmarked) [Compound A30] | 0.12 | 86.87 nm | 96.65% | 0.47 mV | B (B: ≥1 and <2) |
| CCCCCCCC/C=C\CCCCCCCCNC(=O)C(CCCCCCCC)N(CCCCCCCC/C=C\CCCCCCCC)C(=O)CCCN(C)C (centres unmarked) [Compound C1] | 0.108 | 60.62 nm | 82.31% | −9.90 mV | B (B: ≥1 and <2) |
| CCCCCCCCC(C(=O)NCCCCCCCCCC(=O)OC(CCCCCC)CCCCCC)N(CCCN(C)C)C(=O)CCCCCCCCCC(=O)OC(CCCCCC)CCCCCC (centres unmarked) [Compound A11] | 0.075 | 225.6 nm | 71.39% | −2.89 mV | D (D: <0.1.) |
| CCCCCCCCC(C(=O)NCCCCCCCCCC(=O)OC(CCCC)CCCCCC)N(CCCN(C)C)C(=O)CCCCCCCCCC(=O)OC(CCCC)CCCCCC (centres unmarked) [Compound A13] | 0.157 | 118.5 nm | 94.62% | 2.90 mV | B (B: ≥1 and <2) |

Continued, in another order:

| PDI [1] | Size (nm) [1] | Encapsulation efficiency (%) [2] | Zeta potential (mV) (LNP zeta potential) | SMILES | Relative Total flux (mice) |
| --- | --- | --- | --- | --- | --- |
| 0.116 | 58.86 nm | 85.36% | −2.80 mV | CCCCCCCC(C(=O)NCCCCCCCCCC(=O)OC(CCCCCC)CCCCCC)N(CCN(CO)CO)C(=O)CCCCCCCCCC(=O)OC(CCCCCC)CCCCCC (centres unmarked) [Compound B7] | A (A: ≥2) |
| 0.182 | 92.75 nm | 96.30% | −18.58 mV | CCCCCCC(CCCCCC)OC(=O)CCCCCCCCCNC(=O)C(CCCCCCCCCC(=O)OC(CCCCCC)CCCCCC)N(CCCN1CCCC1)C(=O)CCCN1CCCC1 (centres unmarked) [Compound E8] | B (B: ≥1 and <2) |
| 0.15 | 104.5 nm | 85.90% | −6.41 mV | CCCCCCCC(C(=O)NCCCCCCCCCC(=O)OC(CCCCCC)CCCCCC)N(CCCN(CCO)CCO)C(=O)CCCCCCCCCC(=O)OC(CCCCCC)CCCCCC (centres unmarked) [Compound B2] | A (A: ≥2) |
| 0.183 | 84.36 nm | 93.90% | −19.40 mV | CCCCCCC(CCCCCC)OC(=O)CCCCCCCCCNC(=O)C(CCCCCCCCCC(=O)OC(CCCCCC)CCCCCC)N(CCCN(C)CCO)C(=O)CCCN(C)CCO (centres unmarked) [Compound E5] | B (B: ≥1 and <2) |
| 0.187 | 80.68 nm | 81.99% | 4.79 mV | CCCCCCCC(C(=O)NCCCCCCCCCC(=O)OC(CCCCCC)CCCCCC)N(CCn1ccnc1)C(=O)CCCCCCCCCC(=O)OC(CCCCCC)CCCCCC (centres unmarked) [Compound B18] | A (A: ≥2) |
| 0.13 | 95.52 nm | 92.11% | −16.13 mV | CCCCCCC(CCCCCC)OC(=O)CCCCCCCCCNC(=O)C(CCCCCCCCCC(=O)OC(CCCCCC)CCCCCC)N(CCCN(CC)CC)C(=O)CCCN(CC)CC (centres unmarked) [Compound E7] | C (C: ≥0.1 and <1) |
| 0.166 | 93.07 nm | 89.28% | −2.06 mV | CCCCCCC(CCCCCC)OC(=O)CCCCCCCCCNC(=O)C(CCCCCCCCCC(=O)OC(CCCCCC)CCCCCC)N(CCCN(CCO)CCO)C(=O)CCCN(C)C (centres unmarked) [Compound E3] | C (C: ≥0.1 and <1) |
